Source: patent publication US9533017B2, “Saccharomyces cerevisiae yeast for preventing and/or treating vaginal mycoses” (LESAFFRE ET COMPAGNIE, priority 2012, dated 2017)
Entries after “also recorded” stand apart in the source; their conditions may differ.

How the values were obtained:
[1] = system: Candida albicans; test: Rat model of vaginal candidosis: viable C. albicans in the vaginal mucosa (cervico-uterine smears on Chrom-Agar plates); format: in vivo; conditions: for mean growth of the colonies of C. albicans on Chrom-Agar plates (smears): fluconazole 50 μg intravaginal 1 h, 24 h, 48 h after infection
Procedure: (§1) Ovariectomized female rats (Sprague-Dawley) aged from 3 to 5 weeks are purchased from Janvier Laboratoires, France. They are maintained under pseudo-estrus by a subcutaneous injection of estradiol benzoate (Sigma, estradiol benzoate resuspended in sesame oil; 0.5 mg/animal) every other day (i.e. three times per week) up to the end of the experiment.
(§2) A week after the first injection of estradiol inducing pseudo-estrus, the female rats are infected with C. albicans. Infection with C. albicans corresponds to a single intravaginal administration of the C. albicans strain at a concentration of 10^7 CFU.
(§3) Fluconazole is administered by the intravaginal route at a dose of 50 μg per rat, respectively 1 h, 24 h and 48 h after infection with C. albicans. […]
The number of colonies of C. albicans adhering to the vaginal mucosa is evaluated every two days after infection with Candida albicans and up to the end of the experiment (3 weeks later) by taking a cervico-uterine smear (with a calibrated loop) and by spreading on Chrom-Agar plates (a growth medium specific and selective for Candida), 5 vaginal samples being combined.
The viable colonies of Candida albicans are counted after two days of culture at 30° C. on a selective medium (Chrom-Agar plates, BD).
Another way of expressing the results is to calculate the area under the curve (AUC) between day 2 and day 12, which represents a quantitative marker of the presence of viable C. albicans in the vaginal mucosa of rats receiving or not receiving fluconazole.

[2] = system: Candida albicans; test: Rat model of vaginal candidosis: viable C. albicans CFUs in vaginal washes; format: in vivo; set-up: AUC values (D 2-13): unit not given beside the values; conditions: for number of C. albicans CFUs determined from the washes: fluconazole 50 μg intravaginal 1 h
Procedure: as §1, §2, §3
The viable colonies of Candida albicans are counted after two days of culture at 30° C. on a selective medium (Chrom-Agar plates, BD). […]
The number of C. albicans (in CFU) is determined from cervico-uterine smears and washes as described above.

[3] = system: Candida albicans; test: Antigen with mannoside structure of C. albicans in combined vaginal washes (ICT strips); format: in vivo, rat; conditions: combined washes from 5 rats; fluconazole vs untreated infected rats
Excerpt: Detection of an antigen of C. albicans is useful for diagnosing vaginal candidosis. The antigen comprises a highly immunogenic mannoside structure present in the cell wall of C. albicans. The antigen with mannoside structure is the main antigen present in vaginal infection, it therefore constitutes a useful biomarker for diagnosing […] candidosis.
Another possibility for detecting the presence of the antigen with mannoside structure consists of using ICT strips (Candi Vagi, SR2B). “ICT” is based on capture of the antigen contained in the vaginal secretions using a mouse immunoglobulin IgM directed against the antigen with mannoside structure. The monoclonal antibody recognizes the epitopes of the antigen with mannoside structure for a wide range of Candida species. The monoclonal antibody is conjugated to particles or in a mobile phase and is also applied on a nitrocellulose strip as capture antibody. The ICT stick is put in the suspension of vaginal sample and the samples move by capillary action through the block containing the “MAb-gold” conjugate (Mab for monoclonal antibody). The analysis is performed as described in the publication Marot-Leblond et al., Journal of Clinical Microbiology, 2009.
The antigen with mannoside structure is quantified using non-commercial strips in combined washes from 5 rats.

[4] = system: Candida albicans; test: Cytologic analysis of vaginal washes (MGG staining), inflammation; format: in vivo, rat
Procedure: The smears are prepared from a cervical sample and from washes.
Preparations of cells in a thin layer on slides are prepared from combined washes in each group of rats (washes from 5 rats) using a cytocentrifuge (Cytospin®). The slides are fixed using an aerosol cytologic fixative (Cytoral®).
Conventional May Grunwaid Giemsa staining is carried out for evaluating the level of inflammation in the groups of rats that received C. albicans alone or combined with the treatment with the Sc I-3856 yeast.
Slides are prepared from the combined vaginal washes and MGG staining is carried out in order to evaluate the appearance of the vaginal epithelial cells, the presence of bacteria and yeasts and the presence of proinflammatory cells.
For cytologic investigation of the vaginal washes, slides are prepared from the combined vaginal washes and MGG staining is carried out.
The appearance of the vaginal epithelial cells, the presence of bacteria and yeasts and the presence of proinflammatory cells are evaluated by observation (results not shown).

[5] = system: Candida albicans; test: Rat model of vaginal candidosis: viable C. albicans in the vaginal mucosa (cervico-uterine smears on Chrom-Agar plates); format: in vivo; set-up: AUC values (D2 to D13): unit not given beside the values; conditions: fluconazole 50 μg 1 h, 24 h, 48 h after infection

Question: For `OC(Cn1cncn1)(Cn1cncn1)c1ccc(F)cc1F` [fluconazole], which “mean growth of the colonies of C. albicans on Chrom-Agar plates (smears)” value (“mean growth” below) ([1]; day 2) is on record?
Answer: 5.25 CFU

Question: And the “mean growth” value ([1]; day 5)?
Answer: 25 CFU

Question: What about the “mean growth” value ([1]; day 7) of the same compound?
Answer: 42 CFU

Question: And the “mean growth” value ([1]; day 10)?
Answer: 17 CFU

Question: What about the “infection of the vaginal mucosa with C. albicans on day 12” value ([1]; day 12, fluconazole) of the same compound?
Answer: absence of infection with C. albicans; also recorded: prevent infection with Candida albicans completely

Question: And the “mean growth” value ([1]; day 13)?
Answer: 7 CFU

Question: What about the “mean growth” value ([1]; day 15) of the same compound?
Answer: 34.45 CFU

Question: And the “mean growth” value ([1]; day 17)?
Answer: 24.4 CFU

Question: What about the “mean growth” value ([1]; day 20) of the same compound?
Answer: 8.8 CFU

Question: And the “mean growth” value ([1]; day 23)?
Answer: 11.8 CFU

Question: And the “mean growth” value ([1]; day 25)?
Answer: 11.6 CFU

Question: And the “decrease in the number of viable C. albicans in the vaginal mucosa (AUC) relative to untreated rats” value ([1]; first 12 days after infection, fluconazole treatment)?
Answer: 36%

Question: What about the “decrease in elimination of viable C. albicans (AUC of washes) relative to the untreated rats” value ([2]; between days 2 and 12, fluconazole) of the same compound?
Answer: 20%

Question: What about the “number of C. albicans CFUs determined from the washes” value (shortened to “number of C. albicans CFUs determined”) ([2]; day 2, 24 h, 48 h after infection) of the same compound?
Answer: 9 CFU

Question: What about the “number of C. albicans CFUs determined” value ([2]; day 5, 24 h, 48 h after infection) of the same compound?
Answer: 53 CFU

Question: And the “number of C. albicans CFUs determined” value ([2]; day 7, 24 h, 48 h after infection)?
Answer: 17 CFU

Question: And the “number of C. albicans CFUs determined” value ([2]; day 10, 24 h, 48 h after infection)?
Answer: 3 CFU

Question: And the “number of C. albicans CFUs determined” value ([2]; day 13, 24 h, 48 h after infection)?
Answer: 1 CFU

Question: And the “number of C. albicans CFUs determined” value ([2]; day 15, 24 h, 48 h after infection)?
Answer: 6 CFU

Question: And the “number of C. albicans CFUs determined” value ([2]; day 17, 24 h, 48 h after infection)?
Answer: 7 CFU

Question: What about the “number of C. albicans CFUs determined” value ([2]; day 20, 24 h, 48 h after infection) of the same compound?
Answer: 3 CFU

Question: And the “number of C. albicans CFUs determined” value ([2]; day 23, 24 h, 48 h after infection)?
Answer: 1 CFU

Question: And the “number of C. albicans CFUs determined” value ([2]; day 25, 24 h, 48 h after infection)?
Answer: 4 CFU

Question: What about the “percentage of CFUs of C. albicans released/detected in washes in the first phase (D2-D5)” value ([2]; days 2 to 5, fluconazole) of the same compound?
Answer: 73%

Question: What about the “increase of the elimination of viable C. albicans” value ([2]; first week after infection, fluconazole) of the same compound?
Answer: 45%

Question: What about the “peak intensity of release of Candida in washes” value ([2]; fluconazole, first 8 days after infection) of the same compound?
Answer: 5 days

Question: What about the “AUC values (D 2-13)” value ([2]; washes, fluconazole 50 μg 1 h, 24 h, 48 h after infection) of the same compound?
Answer: 199

Question: What about the “quantity of antigens with mannoside structure” value [3] of the same compound?
Answer: less in the rats treated with fluconazole than in the untreated rats

Question: And the “cytology of vaginal washes: inflammatory cells” value ([4]; day 2, fluconazole)?
Answer: prevents inflammatory infiltration

Question: And the “cytology of vaginal washes: C. albicans and inflammatory cells” value ([4]; day 12, fluconazole)?
Answer: not one C. albicans cell is observed and only a few macrophages and neutrophils are present; also recorded: no C. albicans is observed, but some macrophages and neutrophils are observed

Question: And the “presence of C. albicans on slides of vaginal washes” value ([4]; day D2 (by context), yeast as prophylactic or therapeutic treatment)?
Answer: presence of C. albicans is observed

Question: And the “AUC values (D2 to D13)” value [5]?
Answer: 236.875

Question: And the “Difference (AUC D2 to D13 vs C. albicans untreated)” value [5]?
Answer: 135.555
